Assay results from ChEMBL document CHEMBL3046795, “Antifeedant activity of plant extracts and of new natural diglyceride compounds isolated from Ajuga pseudoiva leaves against Spodoptera littoralis larvae” (2001).

Tests used:
Format in all cases: functional
Spodoptera littoralis [1] = experiment: Antifeedant activity against Spodoptera littoralis measured at 1 mg/l after 8 to 24 hr by behavioral bioassay
Spodoptera littoralis [2] = experiment: Antifeedant activity against Spodoptera littoralis measured at 10 mg/l after 8 to 24 hr by behavioral bioassay
Spodoptera littoralis [3] = experiment: Antifeedant activity against Spodoptera littoralis measured at 50 mg/l after 8 to 24 hr by behavioral bioassay
Spodoptera littoralis [4] = experiment: Antifeedant activity against Spodoptera littoralis measured at 100 mg/l after 8 to 24 hr by behavioral bioassay

Row | Compound | AFI (Spodoptera littoralis [1]) | AFI (Spodoptera littoralis [2]) | AFI (Spodoptera littoralis [3]) | AFI (Spodoptera littoralis [4])
1 | CCCCCCCCCCCCCC(O)CC(=O)OC (stereo not drawn) [3-HYDROXYHEXADECANOIC ACID METHYL ESTER] | -3.5% | 9.1% | 32% | 45%
2 | C=C(C)[C@@H](CC)CC[C@@H](C)[C@H]1CC[C@H]2[C@@H]3CC=C4C[C@@H](O)CC[C@]4(C)[C@H]3CC[C@]12C [CLEROSTEROL] | – | – | -15.3% | 3.3%
3 | C=C(C)[C@@H](CC)CC[C@@H](C)[C@H]1CC[C@H]2[C@@H]3CC=C4C[C@@H](OC(=O)CCC)CC[C@]4(C)[C@H]3CC[C@]12C [MIGHAVIDE] | – | – | -0.5% | 10.3%
